Broadly, the IC50 is the midpoint of a concentration-inhibition curve.

Molecules are shown by their SMILES. Like-named read-outs stand apart in the source and are kept apart here. A value given as a limit tells only on which side of the number the result lay.

The test system of this assay is AGS cells. The assay can be described thus: Cell viability in AGS cells (CellTiter Glo2, 8-point dose response, 4 days). It counts as cell-based, human. As for the experimental part: AGS cells were treated with DMSO (no drug control) or each compound in Table 5 in an 8-point dose response for 4 days. Cell viability was measured using CellTiter Glo2. The IC50 of each compound was determined using CDD Vault.
On the technique in general: Cellular ATP, detected with luciferase, serves as a proxy for viable cell number.

Compound `CCC(=O)N1CCc2cc(-c3ccc(C(=O)NCc4cccnc4)cc3)c(C)cc21` (single isomer, unassigned) [Compound I-203, 4-(6-methyl-1-propionylindolin-5-yl)-N-(pyridin-3-ylmethyl)benzamide] displayed an IC50 (Homo sapiens, AGS, 96 h) of 1.54 µM.
As to `CC(=O)N1CCc2cc(-c3ccc(C(=O)NCc4cccnc4)cc3)ccc21` [Compound I-42, 4-(1-acetylindolin-5-yl)-N-(pyridin-3-ylmethyl) benzamide], half-maximal inhibition (Homo sapiens, AGS, 96 h) (IC50) was put at 3.83 µM.
Consider `CCC(=O)Nc1ccc(-c2ccc(C(=O)NCc3cccnc3)cc2)cc1` [Compound I-44, 4′-propionamido-N-(pyridin-3-ylmethyl)-[1,1′-biphenyl]-4-Carboxamide], for which the IC50 (Homo sapiens, AGS, 96 h) is above 30 µM.
Regarding `CC(=O)N1CCCc2cc(-c3ccc(C(=O)NCc4cccnc4)cc3)ccc21` [Compound I-46, 4-(1-acetyl-1,2,3,4-tetrahydroquinolin-6-yl)-N-(pyridin-3-ylmethyl)benzamide], the IC50 was above 18.3 µM. Moreover, the concentration for half-maximal inhibition (IC50) (Homo sapiens, AGS, 96 h) was above 17.5 µM.
In turn, `O=C(NCc1cccnc1)c1ccc(-c2ccc3c(c2)CCN3C(=O)CO)cc1` [Compound I-47, 4-(1-(2-hydroxyacetyl)indolin-5-yl)-N-(pyridin-3-ylmethyl)benzamide] came in with a 50% inhibitory concentration (IC50) (Homo sapiens, AGS, 96 h) of 3.22 µM.
Same read-out and setting: with `CCC(=O)N1CCc2cc(-c3ccc(S(=O)(=O)NCc4cccnc4)cc3)ccc21` [Compound I-48, 4-(1-propionylindolin-5-yl)-N-(pyridin-3-ylmethyl)benzenesulfonamide] the figure was 9.45 µM; with `CCC(=O)N1CCc2cc(-c3ccc(C(=O)NCc4ccncc4)cc3)ccc21` [Compound I-49, 4-(1-propionylindolin-5-yl)-N-(pyridin-4-ylmethyl)benzamide], above 30 µM; with `CCC(=O)N1CCc2cc(-c3cccc(C(=O)NCc4cccnc4)c3)ccc21` [Compound I-50, 3-(1-propionylindolin-5-yl)-N-(pyridin-3-ylmethyl)benzamide], above 30 µM.
The same measure, in the same setting: with `CCC(=O)N1CCc2cc(-c3ccc(C(=O)NCc4cncnc4)cc3)ccc21` [Compound I-51, 4-(1-propionylindolin-5-yl)-N-(pyrimidin-5-ylmethyl)benzamide] the figure was above 30 µM.
Consider `CCC(=O)N1CCc2cc(-c3ccc(C(=O)NCc4ccnnc4)cc3)ccc21` [Compound I-52, 4-(1-propionylindolin-5-yl)-N-(pyridazin-4-ylmethyl)benzamide], for which the IC50 was above 8.01 µM. For the setting “Homo sapiens, AGS, 96 h”, the half-maximal inhibitory concentration (IC50) is above 10 µM.
As for `COCCN1CCc2cc(-c3ccc(C(=O)NCc4cccnc4)cc3)ccc21` [Compound I-53, 4-(1-(2-methoxyethyl)indolin-5-yl)-N-(pyridin-3-ylmethyl)benzamide], the IC50 (Homo sapiens, AGS, 96 h) was 3.52 µM.
In turn, `CCC(=O)N1CCc2cc(-c3ccc(C(=O)NCc4cccnc4)nc3)ccc21` [Compound I-55, 5-(1-propionylindolin-5-yl)-N-(pyridin-3-ylmethyl)picolinamide] displayed an IC50 of 3.66 µM. Besides, the IC50 (Homo sapiens, AGS, 96 h) was determined as 2.89 µM.
Where the note is “Homo sapiens, AGS, 96 h”, `CCC(=O)n1ncc2cc(-c3ccc(C(=O)NCc4cccnc4)cc3)ccc21` [Compound I-56, 4-(1-propionyl-1H-indazol-5-yl)-N-(pyridin-3-ylmethyl)benzamide] gave an IC50 of 7.68 µM.
The compound `CCC(=O)N1CCc2cc(-c3ccc(C(=O)NC(C)c4cccnc4)cc3)ccc21` (centres unmarked) [Compound I-57, 4-(1-propionylindolin-5-yl)-N-(1-(pyridin-3-yl)ethyl)benzamide] had a 50% inhibitory concentration (IC50) (Homo sapiens, AGS, 96 h) above 28.2 µM.
On to `CCC(=O)N1CCc2cc(-c3ccc(C(=O)NC(C)(C)c4cccnc4)cc3)ccc21` [Compound I-58, 4-(1-propionylindolin-5-yl)-N-(2-(pyridin-3-yl)propan-2-yl)benzamide], for which the IC50 (Homo sapiens, AGS, 96 h) was above 30 µM.
For the compound `CCC(=O)N1CCc2cc(-c3ccc(C(=O)NCc4ccc(C)nc4)cc3)ccc21` [Compound I-59, N-((6-methylpyridin-3-yl)methyl)-4-(1-propionylindolin-5-yl) benzamide], the IC50 (Homo sapiens, AGS, 96 h) is above 30 µM.
On to `CCC(=O)N1CCc2cc(-c3ccc(C(=O)NCc4ccc(C)nc4C)cc3)ccc21` [Compound I-60, N-((2,6-dimethylpyridin-3-yl)methyl)-4-(1-propionylindolin-5-yl)benzamide], for which the half-maximal inhibitory concentration (IC50) was found to be 0.384 µM. Moreover, where the note is “Homo sapiens, AGS, 96 h”, 0.344 µM corresponded to half-maximal inhibition (IC50).
Under “Homo sapiens, AGS, 96 h”, `CCC(=O)N1CCc2cc(-c3ccc(C(=O)NCc4cccnc4C)cc3)ccc21` [Compound I-61, N-((2-methylpyridin-3-yl)methyl)-4-(1-propionylindolin-5-yl)benzamide] displayed an IC50 above 30 µM.
In turn, `CCC(=O)N1CCc2cc(-c3ccc(C(=O)N(C)Cc4cccnc4)cc3)ccc21` [Compound I-62, N-methyl-4-(1-propionylindolin-5-yl)-N-(pyridin-3-ylmethyl)benzamide] yielded an IC50 (Homo sapiens, 96 h) of 29.3 µM.
Take `CCC(=O)N1CCc2cc(-c3ccc(C(=O)NCC4CCCNC4)cc3)ccc21` (centres unmarked) [Compound I-63, N-(piperidin-3-ylmethyl)-4-(1-propionylindolin-5-yl)benzamide]: the concentration for half-maximal inhibition (IC50) (Homo sapiens, AGS, 96 h) was above 30 µM.
Still for that read-out and setting: with `CCC(=O)N1CCc2cc(-c3cnc(C(=O)NCc4cccnc4)nc3)ccc21` [Compound I-65, 5-(1-propionylindolin-5-yl)-N-(pyridin-3-ylmethyl) pyrimidine-2-carboxamide] the figure was 7.27 µM; with `CCC(=O)N1CCc2cc(-c3ncc(C(=O)NCc4cccnc4)cn3)ccc21` [Compound I-66, 2-(1-propionylindolin-5-yl)-N-(pyridin-3-ylmethyl) pyrimidine-5-carboxamide], above 30 µM.
Turning to `CC(C)(O)C(=O)N1CCc2cc(-c3ccc(C(=O)NCc4cccnc4)cc3)ccc21` [Compound I-68, 4-(1-(2-hydroxy-2-methylpropanoyl)indolin-5-yl)-N-(pyridin-3-ylmethyl)benzamide], for the setting “Homo sapiens, AGS, 96 h”, half-maximal inhibition (IC50) was put at 29.7 µM.
Still for that read-out and setting: in the case of `CCC(=O)N1CCc2cc(-c3ccc(C(=O)NCC4CCNCC4)cc3)ccc21` [Compound I-70, N-(piperidin-4-ylmethyl)-4-(1-propionylindolin-5-yl)benzamide] it was above 30 µM.
`CCC(=O)N1CCc2nc(-c3ccc(C(=O)NCc4cccnc4)cc3)ccc21` [Compound I-71, 4-(1-propionyl-2,3-dihydro-1H-pyrrolo[3,2-b]pyridin-5-yl)-N-(pyridin-3-ylmethyl)benzamide] displayed an IC50 (Homo sapiens, AGS, 96 h) of 4.35 µM.
In turn, `CCC(=O)N1CCc2cc(-c3ccc(C(=O)NCc4cn[nH]c4)cc3)ccc21` [Compound I-72, N-((1H-pyrazol-4-yl)methyl)-4-(1-propionylindolin-5-yl)benzamide] displayed an IC50 (Homo sapiens, AGS, 96 h) above 30 µM.
Compound `CCC(=O)N1CCc2cc(-c3ccc(C(=O)NCc4cnco4)cc3)ccc21` [Compound I-73, N-(oxazol-5-ylmethyl)-4-(1-propionylindolin-5-yl)benzamide] had an IC50 (Homo sapiens, AGS, 96 h) above 30 µM.
Compound `CCC(=O)N1CCc2cc(-c3ccc(C(=O)Nc4cccnc4)cc3)ccc21` [Compound I-74] returned an IC50 (Homo sapiens, AGS, 96 h) of 6.61 µM.
`CN1CCc2cc(-c3ccc(C(=O)NCc4cccnc4)cc3)ccc21` [Compound I-75, 4-(1-methylindolin-5-yl)-N-(pyridin-3-ylmethyl)benzamide] showed a concentration for half-maximal inhibition (IC50) (Homo sapiens, AGS, 96 h) above 20.6 µM.
`CCC(=O)n1ccc2cc(-c3ccc(C(=O)NCc4cccnc4)cc3)ccc21` [Compound I-90, 4-(1-propionyl-1H-indol-5-yl)-N-(pyridin-3-ylmethyl)benzamide] came in with an IC50 (Homo sapiens, AGS, 96 h) above 13.3 µM.
In the case of `CCC(=O)N1CCc2cc(-c3ccc(C(=O)NCc4cccnc4)cc3C)ccc21` [Compound I-91, 3-methyl-4-(1-propionylindolin-5-yl)-N-(pyridin-3-ylmethyl)benzamide], half-maximal inhibition (IC50) required 2.59 µM. The same compound had a 50% inhibitory concentration (IC50) (Homo sapiens, AGS, 96 h) of 2.03 µM.
The like results for `CCC(=O)N1CCc2cc(-c3ccc(C(=O)NCc4cccnc4)cc3OC)ccc21` [Compound I-94, 3-methoxy-4-(1-propionylindolin-5-yl)-N-(pyridin-3-ylmethyl)benzamide] were, in that order, 8.71 µM and 7.86 µM.
For `CCC(=O)N1CCc2cc(-c3ccc(NC(=O)Cc4cccnc4)cc3)ccc21` [Compound I-95], the IC50 (Homo sapiens, AGS, 96 h) is above 30 µM.
Same read-out and setting: in the case of `CCC(=O)N1CCc2cc(-c3ccc(C(=O)NCc4cccnc4)c(OC)c3)ccc21` [Compound I-96, 2-methoxy-4-(1-propionylindolin-5-yl)-N-(pyridin-3-ylmethyl)benzamide] it was above 30 µM.
The same measure, in the same setting: with `CCC(=O)N1CCc2cc(-c3ccc(C(=O)NCc4cccnc4)cc3F)ccc21` [Compound I-97, 3-fluoro-4-(1-propionylindolin-5-yl)-N-(pyridin-3-ylmethyl) benzamide] the figure was 3.17 µM; with `CCC(=O)N1CCc2cc(-c3ccc(C(=O)NCc4ccccc4)cc3)ccc21` [Compound I-152], above 30 µM.
Under “Homo sapiens, AGS, 96 h”, `CCC(=O)N1CCc2cc(-c3ccc(C(=O)NCc4ccc(OC)cc4)cc3)ccc21` [Compound I-156] gave a concentration for half-maximal inhibition (IC50) above 30 µM.
On the same count and under the same terms, in the case of `CCC(=O)N1CCc2cc(-c3ccc(C(=O)NCc4ccc(C)cc4)cc3)ccc21` [Compound I-157] it was above 30 µM; in that of `CCC(=O)N1CCc2cc(-c3ccc(C(=O)NC(C)c4ccccc4)cc3)ccc21` (centres unmarked) [Compound I-160], above 30 µM; in that of `CCC(=O)N1CCc2cc(-c3ccc(C(=O)NCc4cccc(Cl)c4)cc3)ccc21` [Compound I-168], above 30 µM.
In turn, `CCC(=O)N1CCc2cc(-c3ccc(C(=O)NCc4cccc(OC)c4)cc3)ccc21` [Compound I-171] displayed an IC50 (Homo sapiens, AGS, 96 h) above 30 µM.
`CCC(=O)N1CCc2cc(-c3ccc(C(=O)NCc4cccc(F)c4)cc3)ccc21` [Compound I-174]: the IC50 (Homo sapiens, AGS, 96 h) was above 30 µM.
For the compound `CC(=O)N1CCc2cc(-c3ccc(C(=O)NCc4ccccn4)cc3)ccc21` [Compound I-175], for the setting “Homo sapiens, AGS, 96 h”, the IC50 was 5.14 µM.
For `CCC(=O)N1CCc2cc(-c3ccc(C(=O)NCc4ccc(Cl)cc4)cc3)ccc21` [Compound I-176], under “Homo sapiens, AGS, 96 h”, 25.8 µM corresponded to half-maximal inhibition (IC50).
Under “Homo sapiens, AGS, 96 h”, `CCC(=O)N1CCc2cc(-c3ccc(C(=O)NCC4CCCO4)cc3)ccc21` (centres unmarked) [Compound I-178] yielded a half-inhibitory concentration (IC50) above 30 µM.
For the compound `CCC(=O)N1CCc2cc(-c3ccc(C(=O)NCc4ccc(F)cc4)cc3)ccc21` [Compound I-179], the IC50 (Homo sapiens, AGS, 96 h) was above 30 µM.
The same measure, in the same setting: in the case of `CCOc1ccc(CNC(=O)c2ccc(-c3ccc4c(c3)CCN4C(=O)CC)cc2)cc1` [Compound I-180] it was above 30 µM.

These data come from patent US12522587B2, “Cancer treatments targeting cancer stem cells” (Remedy Plan, Inc., priority 2018, dated 2026).
